Data taken from patent US20250127735A1, “NOVEL COMPOSITION COMPRISING N-ACETYLCYSTEINE FOR OVERCOMING THE ADVERSE EFFECTS OF A CHEMOTHERAPY” (PRONUTRI, priority 2022, published 2025).
“Also recorded” adds a separate entry of the source.

Assays:
[1] = test system: Arnt2, Piezo 2 and CaVα2δ-1 gene expression; assay: qPCR of reporter genes in primary cultured DRG neurons exposed to cisplatin plus test molecules; format: cell-based, mouse; details: for effect on Piezo2, CaVα2δ-1 and ARNT2 expression, molecule taken alone: ex vivo primary cultured neurons, 24 h exposure to 1.25 μg/ml cisplatin (FIGS. 5-9)
Experimental: Treatment of the DRGs for 24 hours.
The effect of different molecules was tested on the expression of the same reporter genes, Pizeo 2, CaVα2δ-1 and ARNT2, using qPCR on primary cultured DRG neurons: • NAC • Beta-carotene (provitamin A) • Vitamin B12 • Luteolin (flavone)

[2] = test system: Piezo2, CaVα2δ-1 and ARNT2 expression; assay: Reporter gene expression in vivo in the animal exposed to a chemotherapy protocol; details: animal exposed to a chemotherapy protocol (not shown)
[3] = test system: DRG neurons; assay: Phase-contrast microscopy of cultured DRG neurons (morphology, neuronal networks); format: cell-based, mouse; details: for effect on the morphology of DRG neurons (cell or network level): molecule taken alone with cisplatin, micrographs not shown
[4] = test system: tactile hypersensitivity triggered by cisplatin and paclitaxel; assay: Von Frey test of tactile hypersensitivity / chemo-induced neuropathy; format: in vivo, mouse
[5] = test system: Piezo 2, CaVα2δ-1, ARNT2, Mafb and Kv1.4 gene expression; assay: qPCR of ion channel and transcription factor gene expression in mouse DRG primary culture treated with chemotherapy or oxidizing agent; format: cell-based
Experimental: Model: C57Bl6 females, 8 to 15 weeks old (sexually mature young adult mice)
The next morning, place 1.25 μg/ml cisplatin with the other molecules to be tested. […]
The RNA is extracted using Macherey-Nagel's “NucleoSpin RNA” kit.
Reverse transcriptions were performed following the protocol of the “SuperScript III Reverse Transcriptase” kit from Thermo Fisher Scientific, doubling the quantities of RNA and products used in order to obtain a higher concentration of cDNA.
The qPCRs were performed with undiluted cDNA obtained by reverse-transcription using 4.625 μL of cDNA and 5.375 μL of SyberROX PCR Mix (final 10 μL per well).
When the cycle threshold (CT)>35, the gene is considered to be not expressed in the cells analyzed.
To compare our results with and without treatment, we calculated the delta between the target gene and the reference gene (36B4) for each condition (e.g. dCTPIEZO2=CTPIEZO2−CT36B4=27.4−21.6=5.8 (control); 30.6-23.4=7.2 (cisplatin)).
We then calculated the delta delta CT of the target gene for the test condition and the control conditions (e.g. ddCTPIEZO2=dCTPIEZO2 (cisplatin)−[…]=7.2−5.8=1.4).
Finally, we determined the relative expression by calculating: 2^^−ddCT (e.g. for PIEZO2:2^^−ddCT=2^^−1.4=0.40).
The results correspond to the mean±SEM.
Mouse DRGs resulting from primary culture were treated with TBHP at 10 or 30 μM or with 1.25 μg/ml cisplatin (positive control) versus control (CTRL). mRNA expression was measured by qPCR and normalized with the 36B4 reference gene. The results correspond to the mean±SEM.

CC(=O)N[C@@H](CS)C(=O)O [NAC, N-acetylcysteine]
effect on Piezo2, CaVα2δ-1 and ARNT2 expression, molecule taken alone [1]: allow Piezo2, CaVα2δ-1 and ARNT2 expression levels to rise; also recorded: strongly limits this disruption in expression | Piezo2, CaVα2δ-1 and ARNT2 expression levels in vivo [2]: allow Piezo2, CaVα2δ-1 and ARNT2 expression levels to rise | effect on the morphology of DRG neurons (cell or network level) [3]: protective effect | chemo-induced neuropathies in a mouse model ([4]; mouse model): suppresses the resulting neuropathies | tactile hypersensitivity in response to mechanical stimuli (Von Frey test) ([4]; triggered by cisplatin and paclitaxel (not shown)): dramatically reduce tactile hypersensitivity

CC(C)(C)OO [TBHP, tert-butyl hydroperoxide]
expression of Kv1.4 (negative control) ([5]; TBHP at 10 or 30 μM (FIG. 4)): unaffected

CC1=C(/C=C/C(C)=C/C=C/C(C)=C/C=C/C=C(C)/C=C/C=C(C)/C=C/C2=C(C)CCCC2(C)C)C(C)(C)CCC1 [beta-carotene, Beta-carotene]
effect on Piezo2, CaVα2δ-1 and ARNT2 expression, molecule taken alone [1]: effect only at a 5 μM dose, and not at the lower doses tested (0.3, 1 and 3 μM) | toxicity to cultured neurons ([3]; beta-carotene 5 μM (not shown)): slightly toxic

N.N.[Cl][Pt][Cl] [cisplatin]
relative expression of PIEZO2 (2^-ddCT) ([5]; cells treated with cisplatin compared to control cells normalized to 1, reference gene 36B4): 0.40 | effects on Mafb mRNA expression ([5]; cisplatin 1.25 μg/ml, 0, 4, 8 and 16 h, normalized with 36B4 (FIG. 3)): not significant

O=c1cc(-c2ccc(O)c(O)c2)oc2cc(O)cc(O)c12 [luteolin, Luteolin]
effect on Piezo2, CaVα2δ-1 and ARNT2 expression, molecule taken alone [1]: does not appear to bring any improvement | effect on the morphology of DRG neurons (cell or network level) [3]: does not appear to bring any improvement

cobalamin [vitamin B12]
effect of vitamin B12 taken alone on gene expression ([1]; dose of 25 and 50 μM, 24 h, 1.25 μg/ml cisplatin (FIG. 7)): no effect | effect on Piezo2, CaVα2δ-1 and ARNT2 expression, molecule taken alone [1]: does not appear to have a conclusive chemoprotective effect | toxicity to neuronal morphology ([3]; vitamin B12 at a dose of 50 μM (not shown)): some toxicity
